This note sets out measurements from US20230003721A1, “MITOTHERAPEUTICS FOR THE TREATMENT OF BRAIN DISORDERS” (The University of Florida Research Foundation, Inc., priority 2019, published 2023).

Each structure is given as a SMILES string. Where a name gives a salt, the structure may show the parent alone.

The subject of test [1] is isolated forebrain mitochondria. Nature of the test: ATP production of isolated mitochondria (luciferase-based kinetic assay). Format: biochemical, mouse.
The next test deals with hippocampal neurons. Briefly: Spontaneous excitatory postsynaptic currents (sEPSC), whole-cell patch-clamp. Format: cell-based, mouse. The settings on record: 12.5 μM, 24 hr, DIV8. The procedure:
Spontaneous excitatory postsynaptic currents in hippocampal neurons. […] The cultures were treated with selected compounds or 0.1% DMSO for 24 hr before measuring spontaneous excitatory postsynaptic currents (sEPSCs). Whole-cell patch-clamp recordings were performed using an Axon Multiclamp 700b amplifier, 1440A Digidata digitizer and data acquisition using pClamp software (Axon Instruments, Foster City, Calif.). The neurons were first recorded in a current clamp mode to monitor cell health. Only neurons with a resting membrane potential of less than −40 mV were used for further analysis. sEPSC recordings were made at 50 kHz and subsequently filtered at 5 kHz. The membrane potential was held at −70 mV during the recording. […] Once a neuron was patched, its seal was monitored, and if the transient resistance was less than […], the recording was not used for analysis. All experiments were performed at room temperature. The frequency and amplitude of sEPSCs were analyzed using the template match search (pClamp) and measured as a percentage of baseline level, calculated from the average of a 5 min baseline recording. The values of the amplitude and frequency of EPSCs for each recording was reported as an average from a 5 min recording period.

The subject of a further test is primary neurons. The settings on record: 75 μM peroxide, 12.5 μM compound, 48 h.

As for `CCCCOc1ccc(C(=O)CCN2CCCCC2)cc1` [DYCLONINE HYDROCHLORIDE], the “ATP production kinetics, amplitude of single exponential fit” value in test [1] (12 μM, starting 20 min after addition, DMSO 22498±358) amounted to 28882±673. Further, the “ATP production of isolated mitochondria (direct effect)” value in test [1] (12.5 μM, within the 45-min measurement period, vs DMSO) is listed as “significantly increased”. Moreover, in the test on hippocampal neurons, the “sEPSC frequency and amplitude” value was “increasing both frequency and amplitude”. Further, the “protection from peroxide (PO) induced mitochondrial fragmentation” value in the test with primary neurons was “fully protected”.
